“Also recorded” adds a separate entry of the source.

Consider 3 molecules from US10758522B2, “Small molecule analogs of the nemo binding peptide” (THE SCRIPPS RESEARCH INSTITUTE, priority 2015, dated 2020).

In one data set the test system is mdx mice. As to the kind of experiment: Chronic treatment of mdx mice (Duchenne muscular dystrophy model). Conditions: for tibialis anterior muscle pathology (H&E): SR compounds 30 mg/kg, 8K-NBD 10 mg/kg. The data set is classed as in vivo, mouse. From the text: Mdx mice develop normally at birth, and then undergo a massive myonecrosis starting at three weeks. Treatment of mdx mice with IKK/NF-kB inhibitors effectively reduces inflammation, block necrosis and increase muscle regeneration. Mdx mice were chronically treated with vehicle, SR12343, SR12460 or 8K-NBD starting from day 21, 3 times/week for 4 weeks. […] To determine if SR12343 and SR12460 improve muscle pathology, tibialis anterior (TA) muscle was stained with hematoxylin and eosin (H&E) to assess inflammatory infiltration, necrosis, central nucleation and fibrosis. […] Fiber size in centrally nucleated and non-centrally nucleated myofibers was also smaller in mice treated with SR12343 and 8K-NBD, indicating active reconstruction of myofiber during the regenerative phase.
To determine muscle strength post-treatment, grip strength test on forelimbs was performed 2 weeks and 4 weeks post-treatment.
HEK293 cells were grown in Dulbecco's Modification of Eagles Medium (with 4.5 g/L glucose and L-glutamine), supplemented with 10% fetal bovine serum, penicillin and streptomycin. Raw264.7 cells were cultured in RPMI-1640 media containing 10% heat-inactivated fetal bovine serum, penicillin and streptomycin. C57BL/10ScSn-Dmd^mdx/J and female C57BL/6 mice were purchased from the Jackson Laboratory. Mice were housed in the animal facilities of Scripps Fla. under constant temperature and humidity. Animal protocols used in this study were approved by Scripps Fla. Institutional Animal Care and Use Committees. Three week-old sex-matched mdx mice were dosed with SR12343 (30 mg/kg), […] (30 mg/kg), 8K-NBD peptide (10 mg/kg) or vehicle by intraperitoneal (i.p.) injection 3 times per week for 4 weeks. Mice were sacrificed at 7 weeks of age by carbon dioxide inhalation and tibialis anterior was collected for histological analysis.
Seven week-old treated or untreated mdx mice were measured for forelimb grip strength using a digital grip strength meter paired with a metal grid (Bioseb). Mice were allowed to grip the metal grid tightly and readings were obtained by gently pulling the tail backward until release. Five sequential measurements were performed and the average force was calculated.
Tissues fixed in 10% neutral buffered formalin (NBF) overnight were imbedded in paraffin. Tissue was sectioned at […] using a microtome. H&E staining was conducted following a standard protocol (REF).

Data set [1] can be described thus: Pharmacokinetics study after ip injection. It is filed as in vivo. The settings on record: mice, 10 mg/kg ip, 2 hr. The protocol:
To determine the stability of the NBD mimetics in vivo, the pharmacokinetics of the compounds was determined in serum following ip injection.
The pharmacokinetic profiles of the NBD mimetics were determined in male C57BL/6J mice (n=3). The drugs were formulated in 10:10:80 of DMSO:Tween 80:water and were dosed by intraperitoneal injection at a final dose of 10 mg/kg. Blood, brain, muscle, spleen, and liver were collected 2 hr post-treatment and were analyzed by mass spectrometry by following the protocol described in ref. 215 (42).

For the next data set, the system named is IKKβ-NEMO interaction. In words: Immunoprecipitation of NEMO and IKKβ immunoblot in Raw 264.7 macrophages and HEK293 cells. The data set is classed as cell-based. Conditions: Raw 264.7 macrophages / HEK293; mimetics 100 μM, 8K-NBD 400 μM. The protocol: The NBD mimetics reduce the interaction between IKKg (NEMO) and IKKß. The indicated concentrations of the drugs were added to HEK 293 or Raw 264.7 cells and cell extracts prepared 30 minutes later. Following immunoprecipitation (IP) of NEMO, the Western was probed for IKKß.
After treatment with the mimetics or NBD peptide, NEMO was immunoprecipitated by an anti-NEMO antibody and IKKβ was immunoblotted to determine the binding of IKKβ to NEMO.
HEK293 or Raw264.7 cells were seeded at 1×10^6 cells/well in 6-well plates and treated with vehicle, small molecule or NBD peptide for indicated time. Cells were lysed in NP-40 lysis buffer supplemented with 1× protease inhibitor cocktails (sigma). Protein was immunoprecipitated by incubating 150 μg of lysate with 1 μg of anti-NEMO antibody (Santa Cruz) on a rotating shaker at 4° C. for 4 hrs, followed by incubation with 20 ul of Protein A agarose beads (ThermoFisher) for 1 hr. Beads were washed in NP40 buffer 3 times and PBS once. Protein was then denatured in SDS-sample buffer and resolved by MINI-PROTEAN TGX 4-15% SDS-PAGE. Anti-IKKβ (1:1000 CST) was used to assess binding of IKKβ to NEMO and anti-NEMO (1:1000 CST) or IgG were used to as a loading control.

The test system of a further data set is IL-6. In words: IL-6 ELISA in LPS-stimulated Raw 264.7 cells. The settings on record: Raw 264.7, 1 ug/ml LPS, supernatant at 24 hr. The data set is classed as cell-based, mouse. The protocol:
To confirm the qRT-PCR result, LPS-mediated IL-6 production was analyzed in Raw 264.7 cells by ELISA. […] Moreover, SR11481 appears to work more efficiently at a lower concentration around 25 μM. Taken together, four lead compounds were identified through seven rounds of optimization and modification.
Enzyme-Linked Immunosorbent Assay (ELISA). Raw264.7 cells were grown in a 96-well plate and pretreated with vehicle, IKKi VII (2 uM) and small molecules (at indicated concentration) for 1 hr, followed by the stimulation with 1 ug/ml of LPS. Supernatant was collected 24 hr later for ELISA analysis. IL-6 concentration was measured using a mouse IL-6 ELISA kit (BD) according to the manufacturer's instructions.
(In an ELISA, binding on a coated surface is turned into a signal by an enzyme label.)

Consider `Nc1ncccc1C(=O)OCC(=O)Nc1ccc(Cl)cc1F` [NBDA-1, 2-((4-chloro-2-fluorophenyl)amino)-2-oxoethyl 2-aminonicotinate], for which the “therapeutic benefit of chronic treatment of mdx mice” value in the data set with mdx mice (chronic treatment with the ZINC compounds) is recorded as “showed no therapeutic benefit”.
Turning to `O=C(CNc1ccc(Cl)cn1)NCCc1cccc(Br)c1` [SR12343, N-(3-bromophenethyl)-2-((5-chloropyridin-2-yl)amino)acetamide], in data set [1] (10 mg/kg), the “stability in serum after ip injection” value is listed as “moderate stability; also recorded: less stable compared to SR12460”. The forelimb grip strength result in the data set with mdx mice (2 weeks post-treatment) is reported as “significantly improved forelimb strength after 2 weeks of treatment”. In the data set on mdx mice (ip 3 times/week for 4 weeks), the “expression of eMyHC and Pax 7 in TA muscle (qRT-PCR)” value is “increasing expression of eMyHC as well as Pax 7”; the “fiber size in centrally nucleated and non-centrally nucleated myofibers” value was “smaller”; the “tibialis anterior muscle pathology (H&E)” value is “most significant pathological improvement”. Besides, the “disruption of IKKβ-NEMO interaction (NEMO IP, IKKβ blot)” value in the data set on IKKβ-NEMO interaction is “strongest activity; also recorded: disruption of the association between NEMO and IKK-β”. For the same molecule, in the data set on IL-6, the “LPS-mediated mIL-6 production (ELISA)” value is on record as “suppressed mIL-6 production in a dose-dependent manner”.
`O=C(CNCCc1cc(F)cc(F)c1)Nc1ccc(Cl)cn1` [SR12460, N-(5-chloropyridin-2-yl)-2-((3,5-difluorophenethyl)amino)acetamide]: the “stability in serum after ip injection” value in data set [1] is listed as “significant stability 2 hr after injection”. In addition, in the data set with mdx mice (ip 3 times/week for 4 weeks), the “expression of eMyHC and Pax 7 in TA muscle (qRT-PCR)” value is listed as “increased eMyHC expression, but to a lower extent compared to SR12343”; the “tibialis anterior muscle pathology (H&E)” value is listed as “partly improved muscle pathology”. Further, in the data set on IKKβ-NEMO interaction, the “disruption of IKKβ-NEMO interaction (NEMO IP, IKKβ blot)” value is “disruption of the association between NEMO and IKK-β”. Further, the “LPS-mediated mIL-6 production (ELISA)” value in the data set on IL-6 was “decreasing by half at 25 μM”.
